Assay results: patent US8158088B2, “Extractant compositions for co-extracting cesium and strontium, a method of separating cesium and strontium from an aqueous feed, and calixarene compounds” (Battelle Energy Alliance, LLC, priority 2008, dated 2012)

How the values were obtained:
Type in all cases: physicochemical
[1] = Solvent stability: strontium distribution ratios as a function of contact time with 1.5 M HNO3
Experimental: (§1) The stability of the mixed extractant solvents prepared using dialkyloxycalix[4]arenebenzocrown-6 compounds (MC-8, MC-8B, MC-10, MC-10B, MC-12, or MC-12B) relative to BOBCalixC6 in the FPEX I process solvent was determined. Samples were prepared using each of the dialkyloxycalix[4]arenebenzocrown-6 compounds and contacted with 1.5 M HNO3. The samples included 0.007 M of the respective dialkyloxycalix[4]arenebenzo-crown-6 compound (MC-8, MC-8B, MC-10, MC-10B, MC-12, or MC-12B), 0.075 M DtBuCH18C6, 0.75 M Cs-7SB modifier, and 0.003 M TOA in ISOPAR® L. The stability of the dialkyloxycalix[4]arene-benzocrown-6 based solvents was evaluated by measuring the cesium and strontium distribution ratios as a function of contact time. These cesium and strontium distribution ratios for the mixed extractant solvents are presented in Table 9 and Table 10, respectively, along with the cesium and strontium distribution ratios for the FPEX I process solvent. The symbol “-” is used in Tables 9 and 10 to indicate no data was collected.
(§2) This degradation is likely due to chemical attack or nitration of the BOBCalixC6 in the FPEX I process solvent. […] However, it is difficult to compare the relative extents of degradation. In order to compare the different extractants, the distribution ratio data presented in Tables 9 and 10 were normalized to the values obtained at t=0 days contact. The normalized cesium and strontium distribution ratios for the FPEX I process solvent and the mixed extractant solvents as a function of contact time are presented in FIGS. 2 and 3, respectively.

[2] = Solubility of the calixarene in the extractant solvent
[3] = Solvent stability: cesium distribution ratios as a function of contact time with 1.5 M HNO3
Experimental: as §1, §2

[4] = Strontium distribution ratio (DSr), equilibrium batch contact of mixed extractant solvent with nitric acid feed
[5] = contact time 0 days with 1.5 M HNO3, 0.007 M calixarene, 0.075 M DtBuCH18C6, 0.75 M Cs-7SB, 0.003 M TOA in ISOPAR L
[6] = contact time 34 days with 1.5 M HNO3
[7] = contact time 70 days with 1.5 M HNO3
[8] = contact time 278 days with 1.5 M HNO3

## CCCCCCCCOc1c2cccc1Cc1cccc3c1OCCOCCOc1ccccc1OCCOCCOc1c(cccc1Cc1cccc(c1OCCCCCCCC)C3)C2 [MC-8, 1,3-alternate-25,27-di(octyloxy)calix[4]arenebenzocrown-6]
[1]; [5]
  Strontium distribution ratio as a function of contact time: 10.5
[1]; [6]
  Strontium distribution ratio as a function of contact time: 7.7
[1]; [7]
  Strontium distribution ratio as a function of contact time: 9.3
[1]; [8]
  Strontium distribution ratio as a function of contact time: 8.0
[2]; 0.05 M MC-8 solvent, room temperature, several months
  precipitation on storage: no observable precipitation
[2]; MC-8 varied from 0.01 M to 0.05 M in 0.075 M DtBuCH18C6, 0.75 M Cs-7SB, 0.003 M TOA in ISOPAR L
  solubility in the mixed extractant solvent: soluble at these increased concentrations
[3]; [5]
  Cesium distribution ratio as a function of contact time: 4.2
[3]; [6]
  Cesium distribution ratio as a function of contact time: 3.2
[3]; [7]
  Cesium distribution ratio as a function of contact time: 3.6
[3]; [8]
  Cesium distribution ratio as a function of contact time: 2.8
[4]; 0.010 M MC-8, contact E1, 1.5 M HNO3, 0.075 M DtBuCH18C6, 0.75 M Cs-7SB, 0.003 M TOA in ISOPAR L
  DSr: 8.9
[4]; 0.015 M MC-8, contact E1, 1.5 M HNO3
  DSr: 7.2
[4]; 0.020 M MC-8, contact E1, 1.5 M HNO3
  DSr: 9.4
[4]; 0.025 M MC-8, contact E1, 1.5 M HNO3
  DSr: 9.1
[4]; 1.0 M HNO3, 20 °C, contact E1, 0.025 M MC-8, 0.075 M DtBuCH18C6, 0.75 M Cs-7SB, 0.003 M TOA in ISOPAR L
  DSr: 7.4
[4]; 1.5 M HNO3, 20 °C, contact E1, 0.025 M MC-8
  DSr: 12.4
[4]; 2.0 M HNO3, 20 °C, contact E1, 0.025 M MC-8
  DSr: 16.2
[4]; 3.0 M HNO3, 20 °C, contact E1, 0.025 M MC-8
  DSr: 3rd phase
[4]; 4.0 M HNO3, 20 °C, contact E1, 0.025 M MC-8
  DSr: 3rd phase
[4]; 15 °C, contact E1, 1.0 M HNO3 feed, 0.025 M MC-8, 0.075 M DtBuCH18C6, 0.75 M Cs-7SB, 0.003 M TOA in ISOPAR L
  DSr: 9.0
[4]; 20 °C, contact E1, 1.0 M HNO3 feed, 0.025 M MC-8
  DSr: 6.0
[4]; 25 °C, contact E1, 1.0 M HNO3 feed, 0.025 M MC-8
  DSr: 4.6
[4]; 30 °C, contact E1, 1.0 M HNO3 feed, 0.025 M MC-8
  DSr: 3.4
[4]; 35 °C, contact E1, 1.0 M HNO3 feed, 0.025 M MC-8
  DSr: 2.5
[4]; contact E1, batch contact flowsheet, simulated feed 1.0 M HNO3, 0.025 M MC-8
  DSr: 7.1
[4]; contact E2, simulated feed 1.0 M HNO3, 0.025 M MC-8
  DSr: 6.2
[4]; contact E3, simulated feed 1.0 M HNO3, 0.025 M MC-8
  DSr: 6.2
[4]; contact St1 (strip), 0.025 M MC-8
  DSr: 0.022
[4]; contact St2 (strip), 0.025 M MC-8
  DSr: 0.006
[4]; first forward extraction, 1.5 M HNO3 feed simulant, 25 °C, 0.007 M calixarene, 0.075 M DtBuCH18C6, 0.75 M Cs-7SB, 0.003 M TOA in ISOPAR L
  Strontium distribution ratio, contact E1: 10.5
[4]; first strip with 0.01 M HNO3, 35 °C, 0.007 M calixarene solvent
  Strontium distribution ratio, contact St1: 0.06
[4]; second forward extraction, 1.5 M HNO3 feed, 25 °C, 0.007 M calixarene solvent
  Strontium distribution ratio, contact E2: 8.6
[4]; second strip with 0.01 M HNO3, 35 °C, 0.007 M calixarene solvent
  Strontium distribution ratio, contact St2: 0.01
[4]; third forward extraction, 1.5 M HNO3 feed, 25 °C, 0.007 M calixarene solvent
  Strontium distribution ratio, contact E3: 8.5
